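Method: 48-hour compound exposure of cells in 96-well plates, five concentrations, linear interpolation of endpoints. TGI marks complete inhibition of growth.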
Columns and labels:
Assay in all cases: inhibition of tumour cell growth, NCI panel, 48 h
SF-539 CNS = tested on: SF-539 CNS
A549 NSCLC = tested on: A549 NSCLC
HL-60(TB) leukemia = tested on: HL-60(TB) leukemia
SK-MEL-2 melanoma = tested on: SK-MEL-2 melanoma
UACC-257 melanoma = tested on: UACC-257 melanoma
IGROV1 ovarian = tested on: IGROV1 ovarian
HOP-62 NSCLC = tested on: HOP-62 NSCLC
OVCAR-5 ovarian = tested on: OVCAR-5 ovarian
K-562 leukemia = tested on: K-562 leukemia
CCRF-CEM leukemia = tested on: CCRF-CEM leukemia
HS 578T breast = tested on: HS 578T breast
HCT-116 colon = tested on: HCT-116 colon
SK-MEL-5 melanoma = tested on: SK-MEL-5 melanoma
SR leukemia = tested on: SR leukemia
EKVX NSCLC = tested on: EKVX NSCLC
786-0 renal = tested on: 786-0 renal
MCF7 breast = tested on: MCF7 breast
SNB-75 CNS = tested on: SNB-75 CNS
MDA-MB-231 breast = tested on: MDA-MB-231 breast
NCI-H460 lung = tested on: NCI-H460 lung
UACC-62 melanoma = tested on: UACC-62 melanoma
SN12C renal = tested on: SN12C renal
MOLT-4 leukemia = tested on: MOLT-4 leukemia
NCI/ADR-RES ovarian = tested on: NCI/ADR-RES ovarian
NCI-H23 lung = tested on: NCI-H23 lung
RXF 393 renal = tested on: RXF 393 renal
HCC-2998 colon = tested on: HCC-2998 colon
OVCAR-4 ovarian = tested on: OVCAR-4 ovarian
XF 498 CNS = tested on: XF 498 CNS
SNB-19 CNS = tested on: SNB-19 CNS
SNB-78 CNS = tested on: SNB-78 CNS
M14 melanoma = tested on: M14 melanoma
LOX IMVI melanoma = tested on: LOX IMVI melanoma
HOP-92 NSCLC = tested on: HOP-92 NSCLC
OVCAR-3 ovarian = tested on: OVCAR-3 ovarian
RXF-631 renal = tested on: RXF-631 renal
U251 CNS = tested on: U251 CNS
T-47D breast = tested on: T-47D breast
ACHN renal = tested on: ACHN renal
DMS 114 small cell lung = tested on: DMS 114 small cell lung
DU-145 prostate = tested on: DU-145 prostate
UO-31 renal = tested on: UO-31 renal
SF-268 CNS = tested on: SF-268 CNS
OVCAR-8 ovarian = tested on: OVCAR-8 ovarian
SK-MEL-28 melanoma = tested on: SK-MEL-28 melanoma
DMS 273 small cell lung = tested on: DMS 273 small cell lung
RPMI-8226 leukemia = tested on: RPMI-8226 leukemia
PC-3 prostate = tested on: PC-3 prostate
SK-OV-3 ovarian = tested on: SK-OV-3 ovarian
HCT-15 colon = tested on: HCT-15 colon
SF-295 CNS = tested on: SF-295 CNS
MALME-3M melanoma = tested on: MALME-3M melanoma
M19-MEL melanoma = tested on: M19-MEL melanoma
NCI-H522 lung = tested on: NCI-H522 lung
HT29 colon = tested on: HT29 colon
NCI-H226 lung = tested on: NCI-H226 lung
SW-620 colon = tested on: SW-620 colon
DLD-1 colon = tested on: DLD-1 colon
TK-10 renal = tested on: TK-10 renal
COLO 205 colon = tested on: COLO 205 colon
LXFL 529 NSCLC = tested on: LXFL 529 NSCLC
MDA-N = tested on: MDA-N
KM12 colon = tested on: KM12 colon
BT-549 breast = tested on: BT-549 breast
CAKI-1 renal = tested on: CAKI-1 renal
KM20L2 colon = tested on: KM20L2 colon
MDA-MB-435 = tested on: MDA-MB-435
HOP-18 NSCLC = tested on: HOP-18 NSCLC
A498 renal = tested on: A498 renal

CCOC1c2cc(OC)c(OC)cc2-c2ccc3ccccc3c2N1C (stereo not given)
TGI (SF-539 CNS): 55.6 µM
TGI (A549 NSCLC): 52.7 µM
TGI (HL-60(TB) leukemia): > 96.5 µM
TGI (SK-MEL-2 melanoma): 28.6 µM
TGI (UACC-257 melanoma): 42.1 µM
TGI (IGROV1 ovarian): 63.3 µM
TGI (HOP-62 NSCLC): 42.6 µM
TGI (OVCAR-5 ovarian): > 80.2 µM
TGI (K-562 leukemia): > 100 µM
TGI (CCRF-CEM leukemia): > 100 µM
TGI (HS 578T breast): 34.1 µM
TGI (HCT-116 colon): 17.7 µM
TGI (SK-MEL-5 melanoma): 30.8 µM
TGI (SR leukemia): > 100 µM
TGI (EKVX NSCLC): 56.3 µM
TGI (786-0 renal): > 64.6 µM
TGI (MCF7 breast): 51 µM
TGI (SNB-75 CNS): 34.9 µM
TGI (MDA-MB-231 breast): 36.6 µM
TGI (NCI-H460 lung): 35.5 µM
TGI (UACC-62 melanoma): 26.8 µM
TGI (SN12C renal): 46.5 µM
TGI (MOLT-4 leukemia): > 82.7 µM
TGI (NCI/ADR-RES ovarian): 96.5 µM
TGI (NCI-H23 lung): 28.1 µM
TGI (RXF 393 renal): 58.5 µM
TGI (HCC-2998 colon): 31.3 µM
TGI (OVCAR-4 ovarian): 54.5 µM
TGI (XF 498 CNS): 31.8 µM
TGI (SNB-19 CNS): 54.7 µM
TGI (SNB-78 CNS): > 100 µM
TGI (M14 melanoma): 40.2 µM
TGI (LOX IMVI melanoma): 41.5 µM
TGI (HOP-92 NSCLC): 58.4 µM
TGI (OVCAR-3 ovarian): 50.9 µM
TGI (RXF-631 renal): > 56.8 µM
TGI (U251 CNS): 33 µM
TGI (T-47D breast): 67.1 µM
TGI (ACHN renal): > 87.5 µM
TGI (DMS 114 small cell lung): 24.6 µM
TGI (DU-145 prostate): 52.4 µM
TGI (UO-31 renal): > 77.8 µM
TGI (SF-268 CNS): 23.6 µM
TGI (OVCAR-8 ovarian): 31.6 µM
TGI (SK-MEL-28 melanoma): 28.7 µM
TGI (DMS 273 small cell lung): 20.2 µM
TGI (RPMI-8226 leukemia): > 88.7 µM
TGI (PC-3 prostate): 21.6 µM
TGI (SK-OV-3 ovarian): 59 µM
TGI (HCT-15 colon): > 83 µM
TGI (SF-295 CNS): > 75.9 µM
TGI (MALME-3M melanoma): 24.1 µM
TGI (M19-MEL melanoma): 25.9 µM
TGI (NCI-H522 lung): 18.3 µM
TGI (HT29 colon): 46.6 µM
TGI (NCI-H226 lung): 66.9 µM
TGI (SW-620 colon): 49.4 µM
TGI (DLD-1 colon): > 75.1 µM
TGI (TK-10 renal): 78.3 µM
TGI (COLO 205 colon): 22.8 µM
TGI (LXFL 529 NSCLC): 24.2 µM
TGI (MDA-N): 28.6 µM
TGI (KM12 colon): 21.1 µM
TGI (BT-549 breast): 28.6 µM
TGI (CAKI-1 renal): > 79.7 µM
TGI (KM20L2 colon): > 90.5 µM
TGI (MDA-MB-435): 36.7 µM
TGI (HOP-18 NSCLC): > 100 µM

C/C1=C/C2OC(=O)C3(C)C2C(CC2(C)OC1=CC2=O)OC3(O)C(C)C (stereo not given)
TGI (SF-539 CNS): > 89.6 µM
TGI (A549 NSCLC): > 100 µM
TGI (HL-60(TB) leukemia): 54.9 µM
TGI (SK-MEL-2 melanoma): > 84.6 µM
TGI (UACC-257 melanoma): > 75.1 µM
TGI (IGROV1 ovarian): > 84.5 µM
TGI (HOP-62 NSCLC): > 100 µM
TGI (OVCAR-5 ovarian): > 79.3 µM
TGI (K-562 leukemia): > 100 µM
TGI (CCRF-CEM leukemia): > 73.4 µM
TGI (HS 578T breast): > 100 µM
TGI (HCT-116 colon): > 100 µM
TGI (SK-MEL-5 melanoma): 55 µM
TGI (SR leukemia): 65.7 µM
TGI (EKVX NSCLC): > 100 µM
TGI (786-0 renal): > 69.3 µM
TGI (MCF7 breast): > 100 µM
TGI (A498 renal): > 100 µM
TGI (SNB-75 CNS): > 100 µM
TGI (MDA-MB-231 breast): > 100 µM
TGI (NCI-H460 lung): > 100 µM
TGI (UACC-62 melanoma): 56.4 µM
TGI (SN12C renal): > 71.4 µM
TGI (MOLT-4 leukemia): > 100 µM
TGI (NCI/ADR-RES ovarian): > 100 µM
TGI (NCI-H23 lung): > 54.1 µM
TGI (RXF 393 renal): > 70.5 µM
TGI (HCC-2998 colon): 48.8 µM
TGI (OVCAR-4 ovarian): > 55.3 µM
TGI (XF 498 CNS): 41 µM
TGI (SNB-19 CNS): > 74.4 µM
TGI (SNB-78 CNS): > 100 µM
TGI (M14 melanoma): > 100 µM
TGI (LOX IMVI melanoma): > 100 µM
TGI (OVCAR-3 ovarian): > 64.9 µM
TGI (RXF-631 renal): > 100 µM
TGI (U251 CNS): > 54 µM
TGI (T-47D breast): > 100 µM
TGI (ACHN renal): > 100 µM
TGI (DMS 114 small cell lung): 29.6 µM
TGI (DU-145 prostate): > 100 µM
TGI (UO-31 renal): > 100 µM
TGI (SF-268 CNS): > 65.9 µM
TGI (OVCAR-8 ovarian): > 62.4 µM
TGI (SK-MEL-28 melanoma): > 100 µM
TGI (DMS 273 small cell lung): > 100 µM
TGI (RPMI-8226 leukemia): > 86.1 µM
TGI (PC-3 prostate): > 100 µM
TGI (SK-OV-3 ovarian): > 100 µM
TGI (HCT-15 colon): > 63.1 µM
TGI (SF-295 CNS): > 78.7 µM
TGI (MALME-3M melanoma): 77.8 µM
TGI (M19-MEL melanoma): > 100 µM
TGI (NCI-H522 lung): 35.7 µM
TGI (HT29 colon): > 66.9 µM
TGI (NCI-H226 lung): > 78.6 µM
TGI (SW-620 colon): 67.4 µM
TGI (DLD-1 colon): 87.8 µM
TGI (TK-10 renal): > 100 µM
TGI (COLO 205 colon): > 73 µM
TGI (LXFL 529 NSCLC): 93.1 µM
TGI (MDA-N): > 100 µM
TGI (KM12 colon): > 60.3 µM
TGI (BT-549 breast): 24.9 µM
TGI (CAKI-1 renal): 62 µM
TGI (KM20L2 colon): 43.2 µM
TGI (MDA-MB-435): > 100 µM
TGI (HOP-18 NSCLC): > 100 µM

CCCCCCCCCC1CC(=O)Oc2cccc(O)c21 (stereo not given)
TGI (SF-539 CNS): 71.7 µM
TGI (A549 NSCLC): 83.4 µM
TGI (HL-60(TB) leukemia): 62 µM
TGI (SK-MEL-2 melanoma): > 72.7 µM
TGI (UACC-257 melanoma): > 100 µM
TGI (IGROV1 ovarian): 55.2 µM
TGI (HOP-62 NSCLC): 80.9 µM
TGI (OVCAR-5 ovarian): > 85.4 µM
TGI (K-562 leukemia): 66.3 µM
TGI (CCRF-CEM leukemia): 77.1 µM
TGI (HCT-116 colon): > 100 µM
TGI (SK-MEL-5 melanoma): 35.2 µM
TGI (SR leukemia): 64.2 µM
TGI (EKVX NSCLC): > 84.6 µM
TGI (786-0 renal): 30.6 µM
TGI (A498 renal): 42 µM
TGI (SNB-75 CNS): > 100 µM
TGI (NCI-H460 lung): 30.7 µM
TGI (UACC-62 melanoma): 98.3 µM
TGI (SN12C renal): 15.7 µM
TGI (MOLT-4 leukemia): > 85.3 µM
TGI (NCI-H23 lung): 84.2 µM
TGI (RXF 393 renal): 46.6 µM
TGI (HCC-2998 colon): > 20.2 µM
TGI (OVCAR-4 ovarian): > 78.3 µM
TGI (XF 498 CNS): 49.7 µM
TGI (SNB-19 CNS): > 88.2 µM
TGI (SNB-78 CNS): > 100 µM
TGI (M14 melanoma): 49.6 µM
TGI (LOX IMVI melanoma): 35.6 µM
TGI (HOP-92 NSCLC): > 70.3 µM
TGI (OVCAR-3 ovarian): 24.9 µM
TGI (RXF-631 renal): 20.2 µM
TGI (U251 CNS): 25.4 µM
TGI (ACHN renal): > 84.8 µM
TGI (DMS 114 small cell lung): 45.7 µM
TGI (UO-31 renal): 75.1 µM
TGI (SF-268 CNS): > 100 µM
TGI (OVCAR-8 ovarian): > 81.2 µM
TGI (SK-MEL-28 melanoma): > 70.9 µM
TGI (DMS 273 small cell lung): 19.3 µM
TGI (RPMI-8226 leukemia): 83.4 µM
TGI (SK-OV-3 ovarian): > 92.2 µM
TGI (HCT-15 colon): 57.1 µM
TGI (SF-295 CNS): > 83.3 µM
TGI (MALME-3M melanoma): 38.1 µM
TGI (M19-MEL melanoma): > 96.7 µM
TGI (NCI-H522 lung): 45.3 µM
TGI (HT29 colon): 53.8 µM
TGI (NCI-H226 lung): 99.5 µM
TGI (SW-620 colon): > 69.4 µM
TGI (DLD-1 colon): > 71 µM
TGI (TK-10 renal): > 100 µM
TGI (COLO 205 colon): 31.3 µM
TGI (LXFL 529 NSCLC): 63.2 µM
TGI (KM12 colon): 39.1 µM
TGI (CAKI-1 renal): 76.3 µM
TGI (KM20L2 colon): > 100 µM
TGI (HOP-18 NSCLC): 97.3 µM
